Data: patent US20260091082A1, “CYCLIC PEPTIDE DERIVATIVE COMPOSITION FOR TREATING OR PREVENTING EYE DISEASE” (DKS Co. Ltd., priority 2022, published 2026)
Where “and” joins values, the source holds several entries; their conditions need not be identical. Equal entries are not always repeated.

Test system: anterior chamber aqueous humor pressure load rat model
Assay: Retinal thickness (IPL, INL, ONL) in retinal damage model induced by anterior chamber aqueous humor pressure load
Assay type: in vivo, Rat; Slc: SD
Details: for Thickness of INL (μm) / Thickness of IPL (μm) / Thickness of ONL (μm): 14 days after model creation, mean ± S.E., 10 animals
Description: • Name: Compound 9 • Source: Synthesized in the above Examples • Used amount: 0.4 mL (50 mg/mL solution) • Storage conditions: Freezing, light shielding
Method for preparing test substance (1 mg/mL): A high concentration solution prepared at 50 mg/mL was diluted 50 times with a medium to prepare a 1 mg/mL administration solution.
• Name: MK-801 • Distributor: SIGMA-ALDRICH • Use amount: 0.0501 g • Storage condition: refrigerated (2° C. to 8° C.)
Method for preparing positive control substance (10 mg/mL): 0.0501 g was weighed out and made up to a total volume of 5 mL with a control substance (physiological saline).
• Species and strains: Rat; Slc: SD • Number of animals on arrival and sex: 50 males • Age in weeks at arrival: 6 weeks old • Body weight range at arrival: 147.2 to 170.0 g • Source: Japan SLC, Inc.
Grouping was performed two days before the first creation of the retinal damage model induced by an anterior chamber aqueous humor pressure load. Using the daily body weight as an index, stratified random allocation was performed using SAS (Ver. 9.3, SAS Institute Japan Ltd.) and EXSUS (Ver. 8.0, CAC Croit Corporation) so that an average value of the body weights of each group was approximately uniform.
• Administration route: Eyedrop administration, intravenous administration • Administration method (eyedrop): Eyedrop administration was performed on a treated eye (right eye) of a rat using a micropipette 4 times a day (at intervals of 1.5 hours or more). • Administration method (intravenous): The amount of administration solution, calculated from the body weight on the day of administration, was administered from the tail vein using a syringe and an injection needle about 30 minutes before ischemic load. • Time of administration: Administration was performed according to the following schedule.
1. 10 mg/kg xylazine hydrochloride was intramuscularly administered on the model creation day (day 0). A rat was placed in an anesthesia box and subjected to general anesthesia with isoflurane (5%, oxygen:nitrous oxide=1:3). When anesthesia was effective, the rat was taken out of the anesthesia box, an inhalation anesthetic mask was worn, and anesthesia was maintained with isoflurane (1% to 5%, oxygen nitrous oxide=1:3).
2. The body temperature was maintained at 37° C. with a warming mat, and a mydrin P ophthalmic solution was instilled in the right eye (treated eye) of the rat to dilate the pupil, then the cravit ophthalmic solution 1.5% (Santen Pharmaceutical Co., Ltd.) was instilled.
3. A bottle of an IV bag containing physiological saline was previously suspended so that a water surface was 155 cm (100 mmHg or more) higher than the eye of the rat. The IV bag was connected to a pediatric infusion set (Terumo Corporation), a 27 G injection needle thereof was inserted into and fixed to the anterior chamber while slightly dripping the liquid from a needle tip. The model was created in the light phase (6:00 to 18:00) in consideration of the diurnal variation of the intraocular pressure.
4. After the needle was inserted into the anterior chamber, pressure (100 mmHg or more) was loaded and maintained in the anterior chamber by associating the reflux system.
5. After an ischemic load for 45 minutes, the injection needle and the like were removed, the inhalation anesthetic mask was removed, and the rat was sufficiently woken up under a warming mat, and then returned to the cage.
6. For 2 days after surgery, 10 mg/kg xylazine hydrochloride was intramuscularly administered as an analgesic for the purpose of alleviating the pain after the treatment.
1. Fourteen days after model creation, general anesthesia was performed with isoflurane (5%, oxygen:nitrous oxide=1:3), euthanasia was then performed by exsanguination, a suture was placed as a marker at the 12 o'clock position of the ocular conjunctiva, and eyeball enucleation was performed.
2. […]

[1] = 300 μm from optic disk, 1 mg/mL eye drop 4 times/day for 13 days from the day after model creation (test group 3)
[2] = 300 μm from optic disk, 1 mg/mL eye drop 4 times/day for 13 days from the day after model creation (test group 3), listed as compound 9
[3] = 300 μm from optic disk, (pre) 1 mg/mL eye drop 4 times/day on the 2 days before model creation (test group 2)
[4] = 300 μm from optic disk, (pre) 1 mg/mL eye drop 4 times/day on the 2 days before model creation (test group 2), listed as compound 9
[5] = 600 μm from optic disk, 1 mg/mL eye drop 4 times/day for 13 days from the day after model creation (test group 3)
[6] = 600 μm from optic disk, 1 mg/mL eye drop 4 times/day for 13 days from the day after model creation (test group 3), listed as compound 9
[7] = 600 μm from optic disk, (pre) 1 mg/mL eye drop 4 times/day on the 2 days before model creation (test group 2)
[8] = 600 μm from optic disk, (pre) 1 mg/mL eye drop 4 times/day on the 2 days before model creation (test group 2), listed as compound 9

CC[C@@]1(C)Oc2cc(ccc2O)C[C@H](NC)C(=O)N[C@@H](C(C)C)C(=O)N[C@@H]1C(=O)N[C@@H](CC(=O)O)C(=O)O [Compound 9]
Thickness of INL (μm), Distance from Optic Disk 300 μm (1 mg/mL eye drop (not pre), right eye, 300 μm from optic disk, individual measurements per animal): 27.268 μm and 29.194 μm and 27.960 μm and 26.601 μm and 24.843 μm (2×) and 25.835 μm and 20.052 μm and 21.030 μm and 18.618 μm and 25.039 μm and 27.705 μm and 29.211 μm and 23.276 μm and 30.228 μm and 28.329 μm (2×) and 29.740 μm (2×) and 27.292 μm and 28.168 μm and 41.632 μm and 38.927 μm and 48.313 μm and 31.260 μm and 35.869 μm and 37.963 μm and 31.090 μm and 28.954 μm and 30.909 μm | Thickness of IPL (μm), Distance from Optic Disk 300 μm (1 mg/mL eye drop (not pre), right eye, 300 μm from optic disk, individual measurements per animal, listed as compond 9): 32.198 μm and 30.002 μm and 34.224 μm and 39.119 μm and 37.558 μm and 34.827 μm and 27.585 μm and 28.700 μm and 33.412 μm and 37.176 μm (3×) and 37.457 μm and 36.016 μm and 35.842 μm and 37.411 μm and 38.117 μm and 35.930 μm and 36.185 μm and 37.237 μm and 38.550 μm and 39.901 μm and 45.876 μm and 47.765 μm and 46.968 μm and 35.532 μm and 36.791 μm and 36.389 μm and 42.704 μm and 39.019 μm | Thickness of INL (μm), Distance from Optic Disk 300 μm, Mean (1 mg/mL eye drop (not pre), right eye, 300 μm from optic disk, mean per animal): 28.141 μm and 25.760 μm and 19.900 μm and 25.862 μm and 27.572 μm and 28.454 μm and 28.746 μm and 42.957 μm and 35.031 μm and 30.318 μm | Thickness of IPL (μm), Distance from Optic Disk 300 μm, Mean (1 mg/mL eye drop (not pre), right eye, 300 μm from optic disk, mean per animal, listed as compond 9): 32.141 μm and 37.168 μm and 29.899 μm and 36.883 μm and 36.810 μm and 36.744 μm and 38.563 μm and 46.870 μm and 36.237 μm and 39.633 μm | Thickness of INL (μm), Distance from Optic Disk 600 μm (1 mg/mL eye drop (not pre), right eye, 600 μm from optic disk, individual measurements per animal): 24.738 μm and 26.582 μm and 31.689 μm and 28.581 μm and 25.207 μm and 26.625 μm and 29.576 μm and 28.954 μm and 37.237 μm and 34.673 μm and 26.256 μm and 29.926 μm and 35.484 μm and 34.715 μm and 36.694 μm and 38.253 μm and 32.381 μm and 33.458 μm and 33.871 μm and 36.611 μm and 27.419 μm and 34.733 μm and 25.544 μm and 26.908 μm and 37.411 μm and 29.937 μm and 35.493 μm and 34.034 μm and 32.419 μm and 29.046 μm | Thickness of IPL (μm), Distance from Optic Disk 600 μm (1 mg/mL eye drop (not pre), right eye, 600 μm from optic disk, individual measurements per animal, listed as compond 9): 38.128 μm and 36.322 μm and 43.429 μm and 43.876 μm and 37.066 μm and 37.938 μm and 42.704 μm and 40.500 μm and 46.031 μm and 45.964 μm and 42.314 μm (2×) and 45.398 μm and 49.200 μm and 42.129 μm and 48.205 μm and 50.755 μm and 43.015 μm and 42.630 μm and 42.759 μm and 41.121 μm and 42.214 μm and 37.880 μm and 41.066 μm and 41.515 μm and 38.919 μm and 45.161 μm and 49.299 μm and 44.538 μm and 46.083 μm | Thickness of INL (μm), Distance from Optic Disk 600 μm, Mean (1 mg/mL eye drop (not pre), right eye, 600 μm from optic disk, mean per animal): 26.246 μm and 31.668 μm and 25.792 μm and 28.479 μm and 36.440 μm and 28.706 μm and 35.231 μm and 36.327 μm and 32.753 μm and 33.176 μm | Thickness of IPL (μm), Distance from Optic Disk 600 μm, Mean (1 mg/mL eye drop (not pre), right eye, 600 μm from optic disk, mean per animal, listed as compond 9): 38.524 μm and 43.173 μm and 37.628 μm and 41.423 μm and 44.503 μm and 42.210 μm and 45.497 μm and 49.420 μm and 43.394 μm and 43.719 μm | Thickness of INL (μm), Distance from Optic Disk 900 μm (1 mg/mL eye drop (not pre), right eye, 900 μm from optic disk, individual measurements per animal): 23.463 μm and 23.821 μm and 26.168 μm and 31.627 μm and 31.452 μm and 31.822 μm and 18.956 μm and 25.938 μm and 21.867 μm and 22.952 μm and 23.718 μm and 22.465 μm and 26.601 μm and 27.289 μm and 29.587 μm and 30.400 μm and 26.367 μm and 26.057 μm and 35.226 μm and 33.688 μm and 33.919 μm and 36.066 μm and 40.039 μm and 42.383 μm and 29.394 μm and 29.751 μm and 27.773 μm and 29.233 μm and 27.808 μm and 25.454 μm | Thickness of IPL (μm), Distance from Optic Disk 900 μm (1 mg/mL eye drop (not pre), right eye, 900 μm from optic disk, individual measurements per animal, listed as compond 9): 39.528 μm and 37.965 μm and 40.039 μm and 50.240 μm and 47.772 μm and 44.149 μm and 38.417 μm and 36.462 μm and 38.383 μm and 39.277 μm and 38.777 μm and 38.865 μm and 45.233 μm and 47.955 μm and 43.645 μm and 43.616 μm and 43.735 μm and 42.098 μm and 53.201 μm and 48.131 μm and 47.334 μm and 50.136 μm and 51.594 μm and 51.265 μm and 43.640 μm and 42.918 μm and 42.582 μm and 46.425 μm and 48.902 μm and 47.239 μm | Thickness of INL (μm), Distance from Optic Disk 900 μm, Mean (1 mg/mL eye drop (not pre), right eye, 900 μm from optic disk, mean per animal): 24.484 μm and 31.634 μm and 22.254 μm and 23.045 μm and 27.826 μm and 27.608 μm and 34.278 μm and 39.496 μm and 28.973 μm and 27.498 μm | Thickness of IPL (μm), Distance from Optic Disk 900 μm, Mean (1 mg/mL eye drop (not pre), right eye, 900 μm from optic disk, mean per animal, listed as compond 9): 39.177 μm and 47.387 μm and 37.754 μm and 38.973 μm and 45.611 μm and 43.150 μm and 49.555 μm and 50.998 μm and 43.047 μm and 47.522 μm | Thickness of INL (μm) [1]: 29.27±1.94 μm | Thickness of IPL (μm) [1]: 37.09±1.42 μm | Thickness of ONL (μm) [1]: 42.79±2.60 μm | Thickness of INL (μm) [2]: 29.27 ± 1.94 μm | Thickness of ONL (μm) [2]: 42.79 ± 2.60 μm | Thickness of INL (μm) [3]: 28.93±1.27 μm | Thickness of IPL (μm) [3]: 31.31±0.93 μm | Thickness of ONL (μm) [3]: 40.06±1.61 μm | Thickness of INL (μm) [4]: 28.93 ± 1.27 μm | Thickness of ONL (μm) [4]: 40.06 ± 1.61 μm | Thickness of INL (μm) [5]: 31.48±1.26 μm | Thickness of IPL (μm) [5]: 42.95±1.07 μm | Thickness of ONL (μm) [5]: 42.33±1.81 μm | Thickness of INL (μm) [6]: 31.48 ± 1.26 μm | Thickness of ONL (μm) [6]: 42.33 ± 1.81 μm | Thickness of INL (μm) [7]: 31.25±1.29 μm | Thickness of IPL (μm) [7]: 38.85±1.23 μm | Thickness of ONL (μm) [7]: 43.03±0.82 μm | Thickness of INL (μm) [8]: 31.25 ± 1.29 μm | Thickness of ONL (μm) [8]: 43.03 ± 0.82 μm
